Measurements from PMC8472562, “Oral Peptide Vaccine against Hookworm Infection: Correlation of Antibody Titers with Protective Efficacy” (Vaccines, 2021).
Entries after “also recorded” stand apart in the source; their conditions may differ. Bridge positions count the residues as written; N and C are the ends. I, II: the chains in the order shown.

How the values were obtained:
[1] = Particle size distribution by dynamic light scattering and TEM; assay type: physicochemical; conditions: 0.2 mg/mL in PBS, 25 °C, angle 173°
Method: Particle size distribution was evaluated by preparing a 0.2 mg/mL solution of each pure compound in PBS and measured using dynamic light scattering (DLS; Zetasizer Nano ZP) at 25 °C and an angle of 173°.
Compounds were evaluated by transmission electron microscopy using a JEM-1010 microscope (JEOL LTD, Tokyo, Japan) at 100 kV. The images were analyzed using AnalySIS® software (Megaview III, Munster, Germany).

[2] = test system: p3 epitope; assay type: in vivo, BALB/c mice; conditions: oral gavage 4 × 100 µg; ELISA
[3] = test system: mutant APR-1M74; assay: Serum anti-APR-1 IgG ELISA after oral immunization; assay type: in vivo, BALB/c mice; conditions: oral gavage 4 × 100 µg, two-week intervals, n = 8/group
[4] = test system: Nippostrongylus brasiliensis; assay type: in vivo, BALB/c mice; conditions: oral 4 × 100 µg; 750 L3 larvae s.c.; 7 days post-infection; one-way ANOVA and Mann Whitney U-test against negative control
[5] = test system: T1, bovine trypsin; assay: In vitro stability against proteolysis by bovine trypsin; assay type: in vitro ADME; conditions: bovine trypsin 1000 U solution, 1 mM CaCl2 in PBS, 37 °C with shaking, analytical HPLC
T1 construct: purchased Sigma-Aldrich
Method: (§1) Enzyme 1000 U solution was prepared from bovine trypsin (10,000 U/mg, Sigma-Aldrich, Castle Hill, NSW, Australia) with 1 mM CaCl2 in 1 mL PBS, as reported previously. After preparation, 100 µL of enzyme solution was added to 400 µL of peptide solution (1.25 mg/mL) in PBS and incubated at 37 °C with shaking. To inhibit enzyme activity, 40 µL of TFA and acetonitrile mixture (1:2) was added to 60 µL aliquots of the mixture at each interval. The solution was analyzed by analytical HPLC with a calibration curve employing the compound’s peak at its characteristic retention time to determine intact compound concentration.

[6] = Secondary structure by ATR-FTIR; assay type: physicochemical; conditions: 2 mg/mL in PBS, 25 °C, triplicate spectra, second derivative
Method: The compounds’ secondary structures were evaluated according to the methodology of Yang et al.. Solutions of each compound in PBS (2 mg/mL) were prepared and placed on the diamond-attenuated total reflectance accessory of the ATR-FTIR, and absorbance spectra were collected from 500 and 4000 cm^−1, in triplicate, at 25 °C and 4 cm^−1 resolution. The first and second derivative of the absorbance spectra were generated and analyzed using Originpro 2020 software. The second derivative secondary structure component-peak assignment was also detected and quantified using Originpro 2020 software.

[7] = test system: p3 epitope; assay type: in vivo, BALB/c mice; conditions: oral gavage 4 × 100 µg, two-week intervals, n = 8/group; ELISA; compared to PBS group or between groups
[8] = molecular target: T2, bovine trypsin (Bos taurus, UniProt P00760); assay: In vitro stability against proteolysis by bovine trypsin; assay type: in vitro ADME; conditions: bovine trypsin in PBS, 37 °C
T2 construct: purchased Sigma-Aldrich
T2 sequence (P00760 24-246): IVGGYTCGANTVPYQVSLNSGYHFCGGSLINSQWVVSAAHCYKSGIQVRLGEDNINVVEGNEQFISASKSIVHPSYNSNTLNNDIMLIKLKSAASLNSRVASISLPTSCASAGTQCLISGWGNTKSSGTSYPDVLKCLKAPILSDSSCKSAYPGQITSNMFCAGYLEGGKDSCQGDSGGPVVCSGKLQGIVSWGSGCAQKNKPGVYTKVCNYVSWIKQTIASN
Method: as §1

Substance: Ac-LLLLLLLLLLTSLIAGPKAQVEAIQKYIGAELKKLIPNASLIENCTKAELSKKKK-NH2 (N-terminus and C-terminus assumed) [LL10]
- polydispersity index (PDI) ([1]; DLS): 0.36 ± 0.1
- nanoparticle size ([1]; self-assembled, electron microscopy and DLS, LCP, BL10, LL10 also formed aggregates): 22 nm
- mucosal antibody responses (saliva and fecal extracts, IgA and IgG) [2]: detectable
- serum anti-APR-1 IgG titers [3]: highest
- parasite and egg numbers after challenge infection, in words [4]: highest significant reduction in worm burden; also recorded: significantly reduced
- metabolised at 0.5 h, 1 mg/mL ([5]; 100 µL enzyme + 400 µL peptide 1.25 mg/mL, 30 min, read-out: degradation after 30 min of incubation with trypsin): 25%
- remaining at 1 h, 1 mg/mL ([5]; peptide 1.25 mg/mL, 60 min, read-out: conjugate remained intact after 60 min): 15%
- β-sheet contribution [6]: 6%
- serum p3-IgG titers [7]: highest; also recorded: significantly higher

Substance: Ac-TSLIAGPKAQVEAIQKYIGAELKKLIPNASLIENCTKAELSKKKK-NH2 [p3-P25]
- time to almost complete degradation by trypsin ([8]; analytical HPLC): less than 30 min

Substance: I: Ac-TSLIAGPKAQVEAIQKYIGAELKKLIPNASLIENCTKAELSKKKK-NH2 / II: Ac-LLLLLLLLLL (amide I:23-II:C) [BL10]
- stability against trypsin degradation, comparison in words ([8]; one-way ANOVA with Tukey's test): significantly slower than p3-P25
